Here are results for six molecules from US12310936B2, “Pharmaceutical compositions for the treatment of cancer” (Seleq Oy, priority 2018, dated 2025).

Numbering of substitutions follows the chain as printed. Names and notes keep the numbering of the source.

One series has as its system HCC cells. Nature of the series: Modulation of SMC cytotoxicity by agents that favor beta-elimination. As to conditions: more prominent together with overexpression of KYAT1.
The subject of a further series is Native HCC cells. The series can be described thus: HCC cell viability with SMC in the presence of alfaketoacid analogues, native HCC cells. The format is cell-based. The note with it: IC50 of SMC in the presence of the labelled alfaketoacid analogue, relative to PPA treated HCC cells (=100). On the procedure: (§1) Normal hepatocytes and malignant hepatocytes (HCC) were incubated in the presence of various concentrations of SMC. After 72 h, the ATP content of lysed cells, which is proportional to the number of viable cells, was measured using a luminescence-based CellTiter Glo Kit (Promega) according to manufacturer's protocol using a FLx100 Luminometer (BioTek).

In another series the test system is KYAT induced cells. Nature of the series: HCC cell viability with SMC in the presence of alfaketoacid analogues, KYAT induced cells. It is filed as cell-based. As to conditions: IC50 of SMC in the presence of the labelled alfaketoacid analogue, relative to untreated KYAT induced cells. As to the method:
as §1

The subject of a further series is human KYAT1. Nature of the series: Selenol production by mutated KYAT1 using SMC as a substrate. It is filed as biochemical. As to conditions: mutant versus wild type KYAT1. The source says:
The crystal structure of human KYAT1 has been determined for several complexes. The complex of KYAT1 with the cofactor PLP and the inhibitor L-Phe was used to create molecular models of Seleno-methyl Cystein (SMC) in complex with KYAT1 (FIG. 1). Our approach has been to identify residues that can be mutated in order to enhance beta-elimination of SMC, resulting in increased selenol production. This can be done by changing the substrate specificity of KYAT1 from kynurenine to SMC, or by changing kinetics of reprotonation of Calpha in the substrate. Several residues were mutated to check their potential involvement into the selenol formation.

For the molecule `Cc1ncc(COP(=O)(O)O)c(C=O)c1O` [PLP, pyridoxal 5′-phosphate], the “effect of the agent on the cytotoxicity of SMC” value (from here on “effect of the agent”) in the series with HCC cells was “increase the cytotoxicity of SMC”. For `O=C(O)C(=O)Cc1ccccc1` [PPA, phenyl pyruvic acid], the “effect of the agent” value in the series on HCC cells was “increase the cytotoxicity of SMC”. Also, the “SMC IC50 (percentage of control)” value in the series with Native HCC cells is 100 percentage of control. For the molecule `COC(=O)CCC(=O)C(=O)OC` [αKG, dimethyl-2-oxoglutarate], the “effect of the agent” value with HCC cells is on record as “increase the cytotoxicity of SMC”. In the case of indole pyruvic acid [IPA], the “SMC IC50 (percentage of control)” value with KYAT induced cells is recorded as 35 percentage of control; with Native HCC cells, 38 percentage of control.

B1: Y101H: mutant human kynurenine aminotransferase I, tyrosine to histidine substitution at position 101 (protein, listed as Homo sapiens)
chain: MAKQLQARRLDGIDYNPWVEFVKLASEHDVVNLGQGFPDFPPPDFAVEAFQHAVSGDFMLNQYTKTFGYPPLTKILASFFGELLGQEIDPLRNVLVTVGGHGALFTAFQALVDEGDEVIIIEPFFDCYEPMTMMAGGRPVFVSLKPGPIQNGELGSSSNWQLDPMELAGKFTSRTKALVLNTPNNPLGKVFSREELELVASLCQQHDVVCITDEVYQWMVYDGHQHISIASLPGMWERTLTIGSAGKTFSATGWKVGWVLGPDHIMKHLRTVHQNSVFHCPTQSQAAVAESFEREQLLFRQPSSYFVQFPQAMQRCRDHMIRSLQSVGLKPIIPQGSYFLITDISDFKRKMPDLPGAVDEPYDRRFVKWMIKNKGLVAIPVSIFYSVPHQKHFDHYIRFCFVKDEATLQAMDEKLRKWKVEL
For the molecule B1, the “selenol production by KYAT1 using SMC as a substrate” value in the series with human KYAT1 is reported as “higher selenol production”.

B2: H279F: mutant human kynurenine aminotransferase I, histidine to phenylalanine substitution at position 279 (protein, listed as Homo sapiens)
chain: B1 chain with H101Y, H279F
In the case of B2, the “selenol production by KYAT1 using SMC as a substrate” value in the series on human KYAT1 is recorded as “higher selenol production”.
